Source: the Kinase Knowledgebase extract (Sharma et al. 2016)

molecular target: PIK3CA (human) (UniProt P42336); test: Inhibition of PIK3CA Kinase Activity
Sequence (P42336 whole entry, looked up): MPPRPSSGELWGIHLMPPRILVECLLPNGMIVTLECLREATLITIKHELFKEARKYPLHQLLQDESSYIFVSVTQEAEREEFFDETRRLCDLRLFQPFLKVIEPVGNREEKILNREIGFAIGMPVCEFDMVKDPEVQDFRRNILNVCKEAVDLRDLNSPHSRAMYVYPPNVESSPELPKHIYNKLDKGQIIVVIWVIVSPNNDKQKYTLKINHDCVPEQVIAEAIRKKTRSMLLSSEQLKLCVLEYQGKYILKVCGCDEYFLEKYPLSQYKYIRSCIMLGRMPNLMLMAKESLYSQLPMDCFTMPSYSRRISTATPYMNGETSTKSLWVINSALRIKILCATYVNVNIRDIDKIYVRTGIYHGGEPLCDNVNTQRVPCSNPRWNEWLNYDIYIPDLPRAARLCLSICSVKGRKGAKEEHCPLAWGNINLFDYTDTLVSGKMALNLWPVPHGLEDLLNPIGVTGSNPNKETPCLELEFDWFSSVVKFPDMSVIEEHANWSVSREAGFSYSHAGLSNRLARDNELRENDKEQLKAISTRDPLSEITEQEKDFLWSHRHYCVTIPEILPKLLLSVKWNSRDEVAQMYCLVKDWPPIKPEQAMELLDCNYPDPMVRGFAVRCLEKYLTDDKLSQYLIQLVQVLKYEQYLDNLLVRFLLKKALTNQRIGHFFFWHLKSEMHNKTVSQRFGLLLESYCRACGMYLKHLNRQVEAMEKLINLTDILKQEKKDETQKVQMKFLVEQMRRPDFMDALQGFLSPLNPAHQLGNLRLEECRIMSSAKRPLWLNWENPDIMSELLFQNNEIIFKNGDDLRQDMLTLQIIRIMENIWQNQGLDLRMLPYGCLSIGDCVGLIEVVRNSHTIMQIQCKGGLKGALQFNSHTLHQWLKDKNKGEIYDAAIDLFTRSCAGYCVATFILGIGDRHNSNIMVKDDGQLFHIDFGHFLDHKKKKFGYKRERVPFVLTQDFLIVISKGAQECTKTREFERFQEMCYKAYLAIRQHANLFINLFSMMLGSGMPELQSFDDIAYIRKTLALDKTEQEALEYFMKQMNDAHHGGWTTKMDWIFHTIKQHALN

Compound | IC50
Cc1nc(C)c(CC2CC2)c(N2CCOc3ccc(-c4cnc5nc(C)[nH]c5c4)cc3C2)n1 | 10 to 50 nM
CCNc1nc2ccc(-c3ccc4c(c3)CN(c3ccnc5ccccc35)CCO4)cc2[nH]1 | ≤ 10 nM
Cc1ncnc(N2CCOc3ccc(-c4ccc(C(N)=O)cc4)cc3C2)c1Cc1ccc(F)cc1 | 10 to 50 nM
COC(=O)Nc1nc2ccc(-c3ccc4c(c3)CN(c3nc(C)nc5ccccc35)CCO4)cc2[nH]1 | 10 to 50 nM
Cc1nc2ccc(-c3ccc4c(c3)CN(c3cc(C(F)(F)F)nc5ccccc35)CCO4)cc2[nH]1 | 50 to 250 nM
CCNc1nc2ccc(-c3ccc4c(c3)CN(c3nc(C)nc5cc(OC)c(OC)cc35)CCO4)cc2[nH]1 | 10 to 50 nM
Cc1nc2ncc(-c3ccc4c(c3)CN(c3nc(CNC(C)C5CC5)nc5c3CC(C)(C)CC5)CCO4)cc2[nH]1 (configuration not stated) | 10 to 50 nM
Cc1nc2ncc(-c3ccc4c(c3)CN(c3ncnc(C)c3CC3CC3)CCO4)cc2[nH]1 | 50 to 250 nM
Cc1cc(Br)c2ncnc(N3CCOc4ccc(-c5ccc6nc(C)[nH]c6c5)cc4C3)c2c1 | 50 to 250 nM
Cc1c(NC2CCN(C)CC2)ncnc1N1CCOc2ccc(-c3cnc4nc(C5CC5)[nH]c4c3)cc2C1 | 10 to 50 nM
CCN(CC)Cc1nc2c(c(N3CCOc4ccc(-c5cnc6nc(C)[nH]c6c5)cc4C3)n1)CC(C)(C)CC2 | 10 to 50 nM
COCCOc1cc(-c2ccc3c(c2)CN(c2nc(CN(C)C)nc4c2CC(C)(C)CC4)CCO3)ccc1OC | 50 to 250 nM
Cc1nc2ncc(-c3ccc4c(c3)CN(c3nc(CN(C)C5CC5)nc5c3CC(C)(C)CC5)CCO4)cc2[nH]1 | 50 to 250 nM
CCc1ncnc(N2CCOc3ccc(-c4ccc5nc(C)[nH]c5c4)cc3C2)c1C | 50 to 250 nM
Cc1nc2ccc(-c3ccc4c(c3)CN(c3ncnc(C(C)C)c3C)CCO4)cc2[nH]1 | 50 to 250 nM
Cc1nc2cc(-c3ccc4c(c3)CN(c3nc(CN(C)C)nc(C)c3Br)CCO4)ccc2[nH]1 | 50 to 250 nM
COc1cc2ncnc(N3CCOc4ccc(-c5cnc6nc(N)[nH]c6c5)cc4C3)c2cc1OC | ≤ 10 nM
COc1ccc2c(N3CCOc4ccc(-c5cnc6nc(N)[nH]c6c5)cc4C3)nc(C)nc2c1 | ≤ 10 nM

Compound | IC50
CC1(C)CCc2ncnc(N3CCOc4ccc(-c5cnc6[nH]ncc6c5)cc4C3)c2C1 | 10 to 50 nM
CN(C)Cc1nc2ncc(-c3ccc4c(c3)CN(c3ncnc5c3CC(C)(C)CC5)CCO4)cc2[nH]1 | 250 to 1000 nM
Cc1nc(CN(C)C)nc(N2CCOc3ccc(-c4cnc5sc(N)nc5c4)cc3C2)c1-c1ccccc1 | 10 to 50 nM
Cc1nc(CN(C)C)nc(N2CCOc3ccc(-c4ccc5[nH]c(CF)nc5c4)cc3C2)c1C(C)C | ≤ 10 nM
COC(=O)Nc1nc2ncc(-c3ccc4c(c3)CN(c3ncnc(C)c3Cc3ccc(F)cc3)CCO4)cc2[nH]1 | ≤ 10 nM
CCOc1ccc2ncnc(N3CCOc4ccc(-c5ccc6nc(C)[nH]c6c5)cc4C3)c2c1 | 50 to 250 nM
CN(C)S(=O)(=O)c1cncc(-c2ccc3c(c2)CN(c2ncnc4c2CC(C)(C)CC4)CCO3)c1 | 50 to 250 nM
Cc1ncnc(N2CCOc3ccc(-c4ccn5nc(N)nc5c4)cc3C2)c1Cc1ccc(F)cc1 | 10 to 50 nM
COc1ccc2c(N3CCOc4ccc(-c5ccc(N)cc5)cc4C3)nc(C)nc2c1 | 250 to 1000 nM
CC1(C)CCc2ncnc(N3CCOc4ccc(-c5cnc6c(c5)S(=O)(=O)NC(=O)N6)cc4C3)c2C1 | 50 to 250 nM
COc1ccc2c(N3CCOc4ccc(-c5ccc(-c6c[nH]cn6)cc5)cc4C3)nc(C)nc2c1 | 50 to 250 nM
CC1(C)CCc2ncnc(N3CCOc4ccc(-c5cnc6[nH]c(C(F)F)nc6c5)cc4C3)c2C1 | 50 to 250 nM
Cc1nc2ccc(-c3ccc4c(c3)CN(c3ncnc(C)c3Cc3ccc(Cl)c(N(C)C)c3)CCO4)cc2[nH]1 | 10 to 50 nM
Cc1nc2cc(-c3ccc4c(c3)CN(c3ncnc5c3CC3(CC5)CC3)CCO4)cnc2[nH]1 | 10 to 50 nM
CCNc1nc2ccc(-c3ccc4c(c3)CN(c3ccncn3)CCO4)cc2[nH]1 | 250 to 1000 nM
Cc1ncnc(N2CCOc3ccc(-c4ccc(C(=O)NC5CC5)cc4)cc3C2)c1Cc1ccc(F)cc1 | 250 to 1000 nM
Cc1nc2ncc(-c3ccc4c(c3)CN(c3nc(CN(C)C)nc5c3CC(C)(C)CC5)CCO4)cc2[nH]1 | ≤ 10 nM
Cc1nc2ccc(-c3ccc4c(c3)CN(c3nc(CN5CC[C@H](F)C5)nc5c3CC(C)(C)CC5)CCO4)cc2[nH]1 | 10 to 50 nM

Further lines, results first:

IC50 | Compound
≤ 10 nM | Cc1c(Nc2ccccc2)ncnc1N1CCOc2ccc(-c3cnc4nc(N)[nH]c4c3)cc2C1
≤ 10 nM | Cc1nc2cc(-c3ccc4c(c3)CN(c3nc(CO)nc(C)c3Cc3ccc(F)cc3)CCO4)ccc2[nH]1
≤ 10 nM | CC(CO)NS(=O)(=O)c1cc(-c2ccc3c(c2)CN(c2ncnc4c2CC(C)(C)CC4)CCO3)cnc1N (configuration not stated)
10 to 50 nM | COc1cc2nccc(N3CCOc4ccc(-c5ccc6nc(N)[nH]c6c5)cc4C3)c2cc1OC
10 to 50 nM | CCN(Cc1nc2c(c(N3CCOc4ccc(-c5cnc6nc(C)[nH]c6c5)cc4C3)n1)CC(C)(C)CC2)C(C)C
250 to 1000 nM | Cc1nc2ccc(-c3ccc4c(c3)CN(c3cc(C(C)C)ncn3)CCO4)cc2[nH]1
≤ 10 nM | Nc1nc2ncc(-c3ccc4c(c3)CN(c3ncnc5ccc(I)cc35)CCO4)cc2[nH]1
50 to 250 nM | Cc1nc2ccc(-c3ccc4c(c3)CN(c3ncnc(C)c3C(C)C)CCO4)cc2[nH]1
≤ 10 nM | Cc1nc(N)nc(N2CCOc3ccc(-c4cnc5[nH]cnc5c4)cc3C2)c1Cc1ccc(F)cc1
10 to 50 nM | CC1(C)C=Cc2ncnc(N3CCOc4ccc(-c5ccc(-c6ncc[nH]6)cc5)cc4C3)c2C1
10 to 50 nM | CC1(C)CCc2ncnc(N3CCOc4ccc(-c5cnc(N)c(S(=O)(=O)NCCN)c5)cc4C3)c2C1
10 to 50 nM | COc1cc2c(N3CCOc4ccc(-c5cnc6nc(N)[nH]c6c5)cc4C3)ncnc2cc1Br
50 to 250 nM | Cc1nc2ncc(-c3ccc4c(c3)CN(c3ncnc(C)c3C)CCO4)cc2[nH]1
50 to 250 nM | Cc1nc2ccc(-c3ccc4c(c3)CN(c3ncnc5cc(Cl)ccc35)CCO4)cc2[nH]1
10 to 50 nM | CC[C@H]1CCCc2c(ncnc2N2CCOc3ccc(-c4cnc5nc(C)[nH]c5c4)cc3C2)C1
50 to 250 nM | Cc1nc2ccc(-c3ccc4c(c3)CN(c3nc(C(C)(C)O)nc5c3CC(C)(C)CC5)CCO4)cc2[nH]1
10 to 50 nM | Cc1nc2c(c(N3CCOc4ccc(-c5cnc6nc(C)[nH]c6c5)cc4C3)n1)CC(C)(C)CC2
≤ 10 nM | Cc1nc2cc(-c3ccc4c(c3)CN(c3nc(CN(C)C)nc(C)c3Cc3ccc(F)cc3)CCO4)ccc2[nH]1
50 to 250 nM | c1ccc2c(N3CCOc4ccc(-c5ccc6nccnc6c5)cc4C3)ccnc2c1
10 to 50 nM | CN(C)S(=O)(=O)c1cc(-c2ccc3c(c2)CN(c2ncnc4c2CC(C)(C)CC4)CCO3)cnc1N
10 to 50 nM | Cc1ncnc(N2CCOc3ccc(-c4ccc5nc(N)[nH]c5n4)cc3C2)c1Cc1ccc(F)cc1
≤ 10 nM | COC(=O)Nc1nc2ccc(-c3ccc4c(c3)CN(c3nc(CN(C)C)nc5c3CC(C)(C)CC5)CCO4)cc2[nH]1
50 to 250 nM | Cc1nc2ccc(-c3ccc4c(c3)CN(c3ncnc5c3CCC(C)(C)C5)CCO4)cc2[nH]1
10 to 50 nM | Cc1nc2ncc(-c3ccc4c(c3)CN(c3nc(CN5CCOCC5)nc5c3CC(C)(C)CC5)CCO4)cc2[nH]1
50 to 250 nM | Cc1c(NC2CCOCC2)ncnc1N1CCOc2ccc(-c3cnc4nc(C5CC5)[nH]c4c3)cc2C1
50 to 250 nM | CC1(C)CCc2ncnc(N3CCOc4ccc(-c5cnc(N)c(S(=O)(=O)N6CCC(O)CC6)c5)cc4C3)c2C1

IC50 | Compound
50 to 250 nM | CN1CC[C@H](CNS(=O)(=O)c2cc(-c3ccc4c(c3)CN(c3ncnc5c3CC(C)(C)CC5)CCO4)cnc2N)C1
≤ 10 nM | CCCc1c(C)nc(CN(C)C)nc1N1CCOc2ccc(-c3cnc4sc(N)nc4c3)cc2C1
≤ 10 nM | COC(=O)Nc1nc2ccc(-c3ccc4c(c3)CN(c3ccnc5cc(OC)c(OC)cc35)CCO4)cc2[nH]1
10 to 50 nM | CC1(C)CCc2ncnc(N3CCOc4ccc(-c5cnc(N)c(S(=O)(=O)NC[C@H]6CCNC6)c5)cc4C3)c2C1
10 to 50 nM | CC1=Cc2ncnc(N3CCOc4ccc(-c5cnc(N)c(S(=O)(=O)N6CC[C@@H](N)C6)c5)cc4C3)c2CC1(C)C
50 to 250 nM | Cc1nc2ncc(-c3ccc4c(c3)CN(c3nc(CN5CCC(F)(F)C5)nc5c3CC(C)(C)CC5)CCO4)cc2[nH]1
10 to 50 nM | Cc1nc2cc(-c3ccc4c(c3)CN(c3nc(C(C)N(C)C)nc5c3CC(C)(C)CC5)CCO4)cnc2[nH]1 (configuration not stated)
10 to 50 nM | Cc1nc2ncc(-c3ccc4c(c3)CN(c3ncnc5c3CCC(C)C5)CCO4)cc2[nH]1 (configuration not stated)
10 to 50 nM | Cc1nc(C)c(Cc2ccc(F)cc2)c(N2CCOc3ccc(-c4ccc5nc(C)[nH]c5c4)cc3C2)n1
50 to 250 nM | Cc1nc2ccc(-c3ccc4c(c3)CN(c3ncnc5cc(F)c(F)cc35)CCO4)cc2[nH]1
10 to 50 nM | CC1(C)CCc2ncnc(N3CCOc4ccc(-c5cnc(N)c(S(=O)(=O)N6CCC(N)C6)c5)cc4C3)c2C1 (configuration not stated)
10 to 50 nM | CC(=O)Nc1nc2cc(-c3ccc4c(c3)CN(c3nc(CN(C)C)nc5c3CC(C)(C)CC5)CCO4)cnc2s1
50 to 250 nM | COCCOCc1nc2c(c(N3CCOc4ccc(-c5ccc6nc(C)[nH]c6c5)cc4C3)n1)CC(C)(C)CC2
50 to 250 nM | CC1(C)CCc2ncnc(N3CCOc4ccc(-c5cnc(N)c(S(=O)(=O)NC[C@H]6CCCNC6)c5)cc4C3)c2C1
10 to 50 nM | COc1cc2ncnc(N3CCOc4ccc(-c5ccc6nc(C)[nH]c6c5)cc4C3)c2cc1Cl
10 to 50 nM | Cc1nc(N2CCOc3ccc(-c4ccc(-c5ncc[nH]5)cc4)cc3C2)c2ccccc2n1
50 to 250 nM | CCOC(=O)c1nc(N2CCOc3ccc(-c4ccc5nc(C)[nH]c5c4)cc3C2)c2ccccc2n1
250 to 1000 nM | c1ccc2c(N3CCOc4ccc(-c5cn[nH]c5)cc4C3)ccnc2c1
10 to 50 nM | COc1c(Br)ccc2c(N3CCOc4ccc(-c5ccc6nc(C)[nH]c6c5)cc4C3)ncnc12
10 to 50 nM | Nc1nc2ccc(-c3ccc4c(c3)CN(c3ccnc5ccccc35)CCO4)cc2[nH]1
≤ 10 nM | Cc1nc(N)nc(N2CCOc3ccc(-c4cnc5sc(N)nc5c4)cc3C2)c1Cc1ccc(F)cc1
50 to 250 nM | CC[C@H]1CCc2c(ncnc2N2CCOc3ccc(-c4cnc5nc([C@@H](C)N)[nH]c5c4)cc3C2)C1
50 to 250 nM | COCCOc1ccc(-c2ccc3c(c2)CN(c2nc(CN(C)C)nc4c2CC(C)(C)CC4)CCO3)cc1OC
10 to 50 nM | Cc1nc2ccc(-c3ccc4c(c3)CN(c3ncnc(C)c3C(C)c3ccccc3)CCO4)cc2[nH]1 (configuration not stated)
250 to 1000 nM | COc1ccc2c(N3CCOc4ccc(-c5cccc(C(=O)O)c5)cc4C3)nc(C)nc2c1
